From ChEMBL document CHEMBL2429748, “DFT-based prediction of antifungal and insecticidal activities of perfluorophenyl antimony(III) and antimony(V) chlorides” (Med Chem Res, 2013) come the findings set out here.

The first experiment concerns Aspergillus flavus. Briefly: Antifungal activity against Aspergillus flavus assessed as growth inhibition at 50 ug/mL by agar diffusion method relative to control. Type of experiment: functional, organism-based. In general terms: In agar diffusion tests the substance spreads into inoculated agar from a disc or well.
As to “chloro(ethyl)tris(pentafluorophenyl)-{5}-stibane”, the growth inhibition (GI) stood at 83.3%.
Still for that read-out and setting: with chlorobis(perfluorophenyl)stibine the figure was 76.6%.
As to dichloro(perfluorophenyl)stibine, the growth inhibition (GI) came out at 66.6%.
Turning to “dichlorotris(pentafluorophenyl)-{5}-stibane”, the growth inhibition (GI) was 73.3%.
Consider “tetrachloro(pentafluorophenyl)-{5}-stibane”, for which the growth inhibition (GI) amounted to 86.7%.
The same measure, in the same setting: with “trichlorobis(pentafluorophenyl)-{5}-stibane” the figure was 83.3%; with tris(perfluorophenyl)stibine, 80%.

The next experiment relates to Aspergillus niger. The experiment can be described thus: Antifungal activity against Aspergillus niger assessed as growth inhibition at 20 ug/mL by agar diffusion method relative to control. Type of experiment: functional, organism-based.
“chloro(ethyl)tris(pentafluorophenyl)-{5}-stibane”: the growth inhibition (GI) is 75%.
chlorobis(perfluorophenyl)stibine: the growth inhibition (GI) was determined as 50%.
Still for that read-out and setting: with dichloro(perfluorophenyl)stibine the figure was 60%.
On the same count and under the same terms, with “dichlorotris(pentafluorophenyl)-{5}-stibane” the figure was 50%; with “tetrachloro(pentafluorophenyl)-{5}-stibane”, 40%.
Turning to “trichlorobis(pentafluorophenyl)-{5}-stibane”, the growth inhibition (GI) turned out to be 40%.
Still for that read-out and setting: with tris(perfluorophenyl)stibine the figure was 50%.

Another experiment concerns Aspergillus flavus. The experiment can be described thus: Antifungal activity against Aspergillus flavus assessed as growth inhibition at 100 ug/mL by agar diffusion method relative to control. It counts as functional, organism-based.
For “chloro(ethyl)tris(pentafluorophenyl)-{5}-stibane”, the growth inhibition (GI) was determined as 96.7%.
Consider chlorobis(perfluorophenyl)stibine, for which the growth inhibition (GI) was 86.7%.
Turning to dichloro(perfluorophenyl)stibine, the growth inhibition (GI) was 73.3%.
The same measure, in the same setting: with “dichlorotris(pentafluorophenyl)-{5}-stibane” the figure was 83.3%.
With “tetrachloro(pentafluorophenyl)-{5}-stibane”, the growth inhibition (GI) worked out at 93.3%.
For the substance “trichlorobis(pentafluorophenyl)-{5}-stibane”, the growth inhibition (GI) is 96.7%.
The same measure, in the same setting: with tris(perfluorophenyl)stibine the figure was 86.7%.

For the next experiment, the system named is Aspergillus niger. Briefly: Antifungal activity against Aspergillus niger assessed as growth inhibition at 10 ug/mL by agar diffusion method relative to control. Type of experiment: functional, organism-based.
For the substance “chloro(ethyl)tris(pentafluorophenyl)-{5}-stibane”, the growth inhibition (GI) is 60%.
In the case of chlorobis(perfluorophenyl)stibine, the growth inhibition (GI) stood at 25%.
On the same count and under the same terms, with dichloro(perfluorophenyl)stibine the figure was 50%; with “dichlorotris(pentafluorophenyl)-{5}-stibane”, 30%; with “tetrachloro(pentafluorophenyl)-{5}-stibane”, 30%.
Same read-out and setting: with “trichlorobis(pentafluorophenyl)-{5}-stibane” the figure was 25%.
Take tris(perfluorophenyl)stibine: the growth inhibition (GI) turned out to be 50%.

A further experiment concerns Aspergillus niger. Briefly: Antifungal activity against Aspergillus niger assessed as growth inhibition at 100 ug/mL by agar diffusion method relative to control. Type of experiment: functional, organism-based.
In the case of “chloro(ethyl)tris(pentafluorophenyl)-{5}-stibane”, the growth inhibition (GI) came out at 95%.
Regarding chlorobis(perfluorophenyl)stibine, the growth inhibition (GI) is 95%.
The same measure, in the same setting: with dichloro(perfluorophenyl)stibine the figure was 90%.
The same measure, in the same setting: with “dichlorotris(pentafluorophenyl)-{5}-stibane” the figure was 80%; with “tetrachloro(pentafluorophenyl)-{5}-stibane”, 90%.
The same measure, in the same setting: with “trichlorobis(pentafluorophenyl)-{5}-stibane” the figure was 75%.
Consider tris(perfluorophenyl)stibine, for which the growth inhibition (GI) stood at 90%.

Another experiment concerns Aspergillus niger. Briefly: Antifungal activity against Aspergillus niger assessed as growth inhibition at 50 ug/mL by agar diffusion method relative to control. Type of experiment: functional, organism-based.
“chloro(ethyl)tris(pentafluorophenyl)-{5}-stibane”: the growth inhibition (GI) was 80%.
In the case of chlorobis(perfluorophenyl)stibine, the growth inhibition (GI) is 70%.
The same measure, in the same setting: with dichloro(perfluorophenyl)stibine the figure was 75%.
As to “dichlorotris(pentafluorophenyl)-{5}-stibane”, the growth inhibition (GI) amounted to 60%.
Turning to “tetrachloro(pentafluorophenyl)-{5}-stibane”, the growth inhibition (GI) is 75%.
The same measure, in the same setting: with “trichlorobis(pentafluorophenyl)-{5}-stibane” the figure was 60%; with tris(perfluorophenyl)stibine, 75%.

A further experiment has as its system Aspergillus flavus. Briefly: Antifungal activity against Aspergillus flavus assessed as growth inhibition at 20 ug/mL by agar diffusion method relative to control. Type of experiment: functional, organism-based.
Consider “chloro(ethyl)tris(pentafluorophenyl)-{5}-stibane”, for which the growth inhibition (GI) is 73.3%.
On the same count and under the same terms, with chlorobis(perfluorophenyl)stibine the figure was 66.6%; with dichloro(perfluorophenyl)stibine, 60%; with “dichlorotris(pentafluorophenyl)-{5}-stibane”, 66.6%.
For the substance “tetrachloro(pentafluorophenyl)-{5}-stibane”, the growth inhibition (GI) was determined as 80%.
On the same count and under the same terms, with “trichlorobis(pentafluorophenyl)-{5}-stibane” the figure was 76.6%; with tris(perfluorophenyl)stibine, 66.6%.

In another experiment the test system is Aspergillus flavus. Briefly: Antifungal activity against Aspergillus flavus assessed as growth inhibition at 10 ug/mL by agar diffusion method relative to control. It counts as functional, organism-based.
In the case of “chloro(ethyl)tris(pentafluorophenyl)-{5}-stibane”, the growth inhibition (GI) was 66.6%.
Turning to chlorobis(perfluorophenyl)stibine, the growth inhibition (GI) turned out to be 53.3%.
For dichloro(perfluorophenyl)stibine, the growth inhibition (GI) came out at 53.3%.
In the case of “dichlorotris(pentafluorophenyl)-{5}-stibane”, the growth inhibition (GI) amounted to 60%.
Turning to “tetrachloro(pentafluorophenyl)-{5}-stibane”, the growth inhibition (GI) was 73.3%.
“trichlorobis(pentafluorophenyl)-{5}-stibane”: the growth inhibition (GI) came out at 60%.
tris(perfluorophenyl)stibine: the growth inhibition (GI) amounted to 60%.
